We go through five compounds from US12076444B2, “Methods and systems for depositing active ingredients on substrates” (Purdue Research Foundation, priority 2015, dated 2024).

Series [1] in a line: API powder bulk density, tapped density tester. Type of series: physicochemical. The method, then: In order to determine the solid volume fractions under which the mixtures of the micronized acetaminophen powder and NEOBEE® 895 would flow as a suspension, bulk density measurements were taken using the 350 Tapped Density Tester (Agilent Technologies, Santa Clara, Calif.), housed in an acoustic cabinet. The test was performed in accordance with ASTM standard D7481-09 (equivalent to USP Method 1) using a 100 mL graduated cylinder with drop height of 14±2 mm at a rate of 300 drops per minute. The mass of the powder sample was determined on a MS8001S NewClassic MF (Mettler Toledo, Switzerland) resulting in a bulk density of 0.36 g/cm^3 after 6000 taps, measured at 21.9° C. and 40% relative humidity.
Bulk density was determined by the same procedure described in Example 32; testing was performed at 22.1° C. and 45% relative humidity.

A short description of series [2]: API particle size, static image analysis (Malvern Morphologi G3-ID). Type of series: physicochemical. The settings on record: dry powder. On the procedure:
The micronized acetaminophen particle size distribution was obtained using the Malvern Morphologi G3-ID, which employs static image analysis to determine morphology. Powder samples of 7 mm^3 were obtained using a standard scoop, transferred to the attached dispersion unit (operated with 0.1 bar pressure and 60 second dispersion cycle) and analyzed at 20× magnification.
Particle morphology was determined in the same manner described in Example 33, but at a magnification of 5×.

The nature of series [3]: API particle skeletal (true) density, helium gas pycnometry. Type of series: physicochemical. The settings on record: mean of four powder samples, ambient about 22° C. On the procedure: The AccuPyc II 1340 Gas Displacement Pycnometry System (Micromeritics Instrument Corporation, Norcross, Ga.) was used to determine the skeletal density of the micronized acetaminophen powder. The AccuPyc II 1340 instrument determines the volume occupied by powder sample, and with knowledge of the sample mass (determined on a XS105 DualRange (Mettler Toledo, Switzerland)) the skeletal density is calculated; purge cycles function to clear the chamber of residual volatile species and occur prior to the measurement cycles. Helium gas was used as the measurement gas, and the following instrument specifications were used in each powder sample: 10 purges (purge fill pressure 19.5 psig), 10 cycles (cycle fill pressure 19.5 psig), pressure equilibration rate 0.0050 psig/min, 3.5 cm^3 cell volume. Performed at ambient conditions of 22° C. and 52% relative humidity, the density reported here corresponds to the mean value obtained from measurement of four powder samples. The density of micronized acetaminophen powder was determined to be 1.3285 g/cm^3.
Skeletal density was determined by the same procedure described in Example 31; testing was performed at ambient conditions of 22° C. and 51% relative humidity. The density reported here corresponds to the mean value obtained from measurement of four powder samples; the density of semi-fine acetaminophen powder was determined to be 1.3274 g/cm^3.
Skeletal density was determined by the same procedure described in Example 31; testing was performed at ambient conditions of 22.6° C. and 53% relative humidity. The density reported here corresponds to the mean value obtained from measurement of four powder samples; the density of mefenamic acid powder was determined to be 1.2706 g/cm^3

Series [4] can be described thus: Raman microscopy of dosage forms. Type of series: physicochemical.
Description: After deposition of the drops onto the film, the crystal structure of the mevastatin-PEG 3350 melt formulations were analyzed with a Raman RXN1 Microprobe (Kaiser Optical Systems, MI). First the spectra of pure mevastatin and PEG 3350 solid dispersions were obtained. Mevastatin and PEG 3350 powders were heated above their melting temperatures, to 152° C. and 60° C., respectively. The melts of pure mevastatin and pure PEG 3350 were solidified at room temperature and then analyzed to obtain the spectra of pure compounds. The spectra of the melt formulation consisting of 15% mevastatin and 85% PEG 3350 were obtained by analyzing the drops of the melt formulation deposited using the dropwise additive manufacturing process.
A Thermo Scientific DRX Raman Microscope equipped with a 532 nm laser is used to analyze the solid state form of the drug present in the melt formulations. First, the spectra of pure crystalline celecoxib and gelucire 44/14 solid dispersion are obtained. Pure celecoxib and pure gelucire 44/14 are analyzed to obtain the spectra of pure compounds. […]
The form of celecoxib in the dosage forms is analyzed with a Raman microscope to investigate the effect of gelucire on crystallization of celecoxib within the deposits.
Setting [5] is: 15% naproxen 85% PEG 3350 melt dosage forms.

The structures appear in SMILES notation. Like-named read-outs stand apart in the source and are kept apart here.

`CC(=O)Nc1ccc(O)cc1` [micronized acetaminophen, acetaminophen (paracetamol)] came in with a Bulk density in series [1] (after 6000 taps) of 0.36 g/mL. In series [2], this compound displayed a Sauter mean diameter of 22.05 μm and a d90 of 75.29 μm. For the same compound, in series [3], the “Skeletal (true) density” value is 1.3285 g/mL.
For the compound `Cc1cccc(Nc2ccccc2C(=O)O)c1C` [mefenamic acid], the Bulk density in series [1] (after 6000 taps) was found to be 0.7423 g/mL. Moreover, in series [2], the Sauter mean diameter amounted to 88.83 μm and the d90 was 400.5 μm. Moreover, the “Skeletal (true) density” value in series [3] was determined as 1.2706 g/mL.
Regarding `CC(=O)Nc1ccc(O)cc1` [semi-fine acetaminophen, acetaminophen (paracetamol)], the Bulk density in series [1] (after 8000 taps) amounted to 0.46 g/mL. Besides, in series [2], the Sauter mean diameter turned out to be 47.66 μm and the d90 worked out at 208.8 μm. Moreover, the “Skeletal (true) density” value in series [3] was 1.3274 g/mL.
With `COc1ccc2cc([C@H](C)C(=O)O)ccc2c1` [naproxen], the “Physical form of the drug in the dosage forms (Raman)” value in series [4] (setting [5]) was “crystalline”. The “Physical form of the drug in the dosage forms (X-ray diffraction)” value runs as follows: under setting [5], “crystalline”; (15% naproxen 85% Pluronic F38 melt dosage forms) “crystalline”.
Take `CC[C@H](C)C(=O)O[C@H]1CCC=C2C=C[C@H](C)[C@H](CC[C@@H]3C[C@@H](O)CC(=O)O3)[C@H]21` [mevastatin]: the “Physical form of the drug in the dosage forms (Raman)” value in series [4] (15% mevastatin 85% PEG 3350 melt dosage forms) is “crystalline”.
